Data reported in patent publication US10800789B2, “Antiviral compounds” (Gilead Pharmasset LLC, priority 2012, dated 2020).
Like-named read-outs stand apart in the source and are kept apart here.

How the values were obtained:
[1] = test system: stable HCV 1a RLuc replicon cells (dicistronic genotype 1a H77 replicon); assay: Renilla luciferase HCV replicon reporter assay, genotype 1a; assay type: cell-based; settings: Hepatitis C virus, 72 h, stable 1a H77 RLuc replicon cells
In short: (§1)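 Cells carrying the stable or transiently transfected (Huh-Lunet) dicistronic RLuc replicons received 3-fold serial compound dilutions from 10 mM DMSO stocks. After 72 h, cells were lysed and Renilla luciferase read. DMSO served as the no-inhibition control and ITMN-191 above 100×EC50 as the positive control; EC50 by non-linear regression.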

[2] = test system: stable HCV 2a JFH-1 Rluc replicon cells (L31 present in NS5A); assay: Renilla luciferase HCV replicon reporter assay, genotype 2a JFH-1; assay type: cell-based; settings: Hepatitis C virus
In short: as §1

[3] = test system: NS5A chimeric genotype 1b Con1 replicon with genotype 3a S52 strain NS5A gene; assay: Replicon assay, genotype 3a NS5A chimera; assay type: cell-based, HCV; settings: Hepatitis C virus
[4] = test system: NS5A chimeric genotype 1b Con1 replicon with genotype 4a ED43 strain NS5A gene; assay: Replicon assay, genotype 4a NS5A chimera; assay type: cell-based, HCV; settings: Hepatitis C virus
[5] = test system: NS5A chimeric genotype 2a JFH-1 replicon with genotype 2b MD2b-1 strain NS5A gene (M31 present); assay: Replicon assay, genotype 2b NS5A chimera; assay type: cell-based, HCV; settings: Hepatitis C virus
In short: as §1

[6] = test system: stable HCV 1b RLuc replicon cells (dicistronic genotype 1b Con1 replicon); assay: Renilla luciferase HCV replicon reporter assay, genotype 1b; assay type: cell-based; settings: Hepatitis C virus, 72 h, stable 1b Con1 RLuc replicon cells, 72 hours; read-out: 1b
In short: as §1

[7] = test system: NS5A chimeric genotype 2a JFH-1 replicon with genotype 2a J6 strain NS5A gene (M31 present); assay: Replicon assay, genotype 2a J6 NS5A chimera; assay type: cell-based, HCV; settings: Hepatitis C virus
In short: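 Antiviral EC50 was determined in HCV replicon cells (stable RLuc lines for 1a H77, 1b Con1, 2a JFH-1 with NS5A L31; J6 NS5A chimera with M31) treated 72 h with compound. Renilla luciferase was then quantified.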

[8] = read-out: 2a JFH (nM), genotype 2a JFH-1 replicon (L31 in NS5A), stable cells
[9] = read-out: 2a JFH, stable 2a JFH-1 Rluc replicon cells, L31 in NS5A, activity range
[10] = read-out: 3a (s) (nM), genotype 3a NS5A chimeric replicon, stable replicon cells (s)
[11] = read-out: 3a (s), (s), activity range
[12] = read-out: 4a (s) (nM), genotype 4a NS5A chimeric replicon, stable replicon cells (s)
[13] = read-out: 4a (s), (s), activity range
[14] = 2BS, read-out: 2b (s), stably replicating replicon cells (s), activity range
[15] = read-out: 2b (s) (nM), genotype 2b MD2b-1 NS5A chimeric replicon (M31), stably replicating replicon cells (s)
[16] = read-out: 2a J6 (t) (nM), genotype 2a J6 NS5A chimeric replicon (M31), transiently transfected (t) into Huh-Lunet cells
[17] = read-out: 2a J6 (t), transiently transfected (t) into Huh-Lunet cells, activity range

Compound | EC50 [1] [nM] | EC50 ([1]; activity range) [nM] | EC50 [2, 8] [nM] | EC50 [2, 9] [nM] | EC50 [3, 10] [nM] | EC50 [3, 11] [nM] | EC50 [4, 12] [nM] | EC50 [4, 13] [nM] | EC50 [5, 14] [nM] | EC50 [5, 15] [nM] | EC50 [6] [nM] | EC50 [7, 16] [nM] | EC50 [7, 17] [nM]
COC(=O)N[C@H](C(=O)N1[C@@H](C)CC[C@H]1c1nc2ccc3cc4c(cc3c2[nH]1)OCc1cc(-c2cnc([C@@H]3C[C@@H]5CCC[C@@H]5N3C(=O)[C@@H](NC(=O)OC)C3CCOCC3)[nH]2)ccc1-4)C(C)C [IB] | 0.021 | < 0.1 | 0.027 | < 0.1 | 0.077 | < 0.1 | 0.026 | < 0.1 | 0.1 to 0.999 | 0.129 | 0.032 | 0.05 | < 0.1
CC[C@H]1CC[C@@H](c2ncc(-c3ccc4c(c3)COc3cc5c(ccc6nc([C@@H]7C[C@H](C)CN7C(=O)[C@@H](NC(=O)OC)C(C)C)[nH]c65)cc3-4)[nH]2)N1C(=O)[C@@H](NC(=O)OC)C1CCOCC1 [IC] | 0.024 | < 0.1 | 0.02 | < 0.1 | 0.116 | 0.1 to 0.999 | 0.012 | < 0.1 | 0.1 to 0.999 | 0.122 | 0.027 | 0.052 | < 0.1
COC(=O)N[C@H](C(=O)N1[C@@H](C)CC[C@H]1c1ncc(-c2ccc3c(c2)COc2cc4c(ccc5nc([C@@H]6CC[C@H](C(C)C)N6C(=O)[C@@H](NC(=O)OC)C6CCOCC6)[nH]c54)cc2-3)[nH]1)C(C)C [ID] | 0.035 | < 0.1 | 0.051 | < 0.1 | 0.801 | 0.1 to 0.999 | 0.026 | < 0.1 | 1 to 44 | 1.81 | 0.038 | 0.953 | 0.1 to 0.999
CC[C@H]1CC[C@@H](c2nc3ccc4cc5c(cc4c3[nH]2)OCc2cc(-c3cnc([C@@H]4CC[C@H](C)N4C(=O)[C@@H](NC(=O)OC)C(C)C)[nH]3)ccc2-5)N1C(=O)[C@@H](NC(=O)OC)C(C)C [IF] | 0.016 | < 0.1 | 0.026 | < 0.1 | 0.35 | 0.1 to 0.999 | 0.017 | < 0.1 | 0.1 to 0.999 | 0.691 | 0.021 | 0.84 | 0.1 to 0.999
CC[C@H]1CC[C@@H](c2nc3ccc4cc5c(cc4c3[nH]2)OCc2cc(-c3cnc([C@@H]4CC[C@H](C)N4C(=O)[C@@H](NC(=O)OC)C(C)C)[nH]3)ccc2-5)N1C(=O)[C@H](NC(=O)OC)c1ccccc1 [IH] | 0.02 | < 0.1 | 0.024 | < 0.1 | 0.052 | < 0.1 | 0.016 | < 0.1 | 0.1 to 0.999 | 0.194 | 0.021 | 0.514 | 0.1 to 0.999
CC[C@H]1CC[C@@H](c2nc3ccc4cc5c(cc4c3[nH]2)OCc2cc(-c3cnc([C@@H]4CC[C@H](CC)N4C(=O)[C@@H](NC(=O)OC)C4CCOCC4)[nH]3)ccc2-5)N1C(=O)[C@@H](NC(=O)OC)C(C)C [II] | 0.024 | < 0.1 | 0.029 | < 0.1 | 0.701 | 0.1 to 0.999 | 0.016 | < 0.1 | 0.1 to 0.999 | 0.197 | 0.033 | 0.209 | 0.1 to 0.999
CC[C@H]1CC[C@@H](c2ncc(-c3ccc4c(c3)COc3cc5c(ccc6nc([C@@H]7C[C@@H]8CCC[C@@H]8N7C(=O)[C@@H](NC(=O)OC)C(C)C)[nH]c65)cc3-4)[nH]2)N1C(=O)[C@@H](NC(=O)OC)C1CCOCC1 [IN] | 0.021 | < 0.1 | 0.03 | < 0.1 | 0.212 | 0.1 to 0.999 | 0.023 | < 0.1 | 0.1 to 0.999 | 0.109 | 0.028 | 0.044 | < 0.1
CC[C@H](C)[C@H](NC(=O)OC)C(=O)N1[C@H](c2nc3ccc4cc5c(cc4c3[nH]2)OCc2cc(-c3cnc([C@@H]4CC[C@H](C)N4C(=O)[C@@H](NC(=O)OC)C4CCOCC4)[nH]3)ccc2-5)C[C@@H]2CCC[C@@H]21 [IO] | 0.027 | < 0.1 | 0.033 | < 0.1 | 0.293 | 0.1 to 0.999 | 0.03 | < 0.1 | 0.1 to 0.999 | 0.118 | 0.043 | 0.07 | < 0.1
